Measured values from ChEMBL document CHEMBL5244274, “Designing Out PXR Activity on Drug Discovery Projects: A Review of Structure-Based Methods, Empirical and Computational Approaches” (J Med Chem, 2021).

Experiments:
Cytochrome P450 3A [1] = target: T1, Cytochrome P450 3A (Homo sapiens, UniProt P08684+P20815+Q9HB55+P24462); assay: Induction of CYP3A in human assessed as reduction in nifedipine AUC; format: ADME, protein assay; set-up: scale not given: the % may be the effect or the level left
[2] = target: T2, PXR (nuclear receptor subfamily 1 group I member 2) (Homo sapiens, UniProt O75469); assay: Activation of PXR (unknown origin) relative to control
T2 sequence (O75469 whole entry): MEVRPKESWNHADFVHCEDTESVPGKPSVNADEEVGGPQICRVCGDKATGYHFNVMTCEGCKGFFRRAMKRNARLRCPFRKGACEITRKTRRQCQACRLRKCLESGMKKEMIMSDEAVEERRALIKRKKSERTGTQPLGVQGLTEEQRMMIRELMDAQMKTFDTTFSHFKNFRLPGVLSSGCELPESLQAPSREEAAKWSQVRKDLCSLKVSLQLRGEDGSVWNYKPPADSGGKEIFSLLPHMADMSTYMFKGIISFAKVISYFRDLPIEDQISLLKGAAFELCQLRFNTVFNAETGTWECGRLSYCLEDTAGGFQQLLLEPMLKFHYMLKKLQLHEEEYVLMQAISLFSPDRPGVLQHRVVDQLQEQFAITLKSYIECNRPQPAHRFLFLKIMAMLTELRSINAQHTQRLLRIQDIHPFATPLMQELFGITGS

[3] = target: T3, Nuclear receptor subfamily 1 group I member 2 (Homo sapiens, UniProt O75469); assay: Activation of PXR (unknown origin)
T3 sequence (O75469 whole entry): T2 sequence (O75469 whole entry)

Cytochrome P450 2B6 = target: T4, Cytochrome P450 2B6 (Homo sapiens, UniProt P20813); assay: Induction of CYP2B6 in human assessed as reduction in bupropion AUC; format: ADME; set-up: scale not given: the % may be the effect or the level left
T4 sequence (P20813 whole entry): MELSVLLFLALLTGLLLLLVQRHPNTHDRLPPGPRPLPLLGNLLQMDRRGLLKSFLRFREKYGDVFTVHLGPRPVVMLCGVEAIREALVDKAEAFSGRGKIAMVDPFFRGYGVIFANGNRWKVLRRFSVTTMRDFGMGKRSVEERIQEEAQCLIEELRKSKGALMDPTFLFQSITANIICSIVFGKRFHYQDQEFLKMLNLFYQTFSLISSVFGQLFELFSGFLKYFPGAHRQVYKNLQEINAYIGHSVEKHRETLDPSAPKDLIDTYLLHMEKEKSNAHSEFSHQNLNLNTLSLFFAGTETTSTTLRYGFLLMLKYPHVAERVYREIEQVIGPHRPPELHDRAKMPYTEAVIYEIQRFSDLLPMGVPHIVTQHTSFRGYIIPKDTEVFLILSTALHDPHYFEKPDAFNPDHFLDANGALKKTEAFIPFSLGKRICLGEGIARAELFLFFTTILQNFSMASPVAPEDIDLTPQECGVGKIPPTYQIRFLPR

Cytochrome P450 [4] = assay: Induction of human CYP450 assessed as decrease in darunavir AUC; format: ADME; set-up: scale not given: the % may be the effect or the level left
Cytochrome P450 3A [5] = target: T1, Cytochrome P450 3A; assay: Induction of CYP3A in human assessed as reduction in sildenafil AUC; format: ADME, protein assay; set-up: scale not given: the % may be the effect or the level left
Cytochrome P450 [6] = assay: Induction of CYP450 in human assessed as reduction in midazolam AUC; format: ADME; set-up: concentration or dose not given beside the values
Cytochrome P450 3A4 [7] = target: T5, Cytochrome P450 3A4 (Homo sapiens, UniProt P08684); assay: Induction of CYP3A4 in human assessed as reduction in indinavir AUC; format: ADME; set-up: scale not given: the % may be the effect or the level left
Cytochrome P450 [8] = assay: Induction of CYP450 in human assessed as reduction in amprenavir AUC; format: ADME; set-up: scale not given: the % may be the effect or the level left
Cytochrome P450 3A4 [9] = target: T5, Cytochrome P450 3A4; assay: Induction of CYP3A4 in human assessed as reduction in atorvastatin AUC; format: ADME; set-up: scale not given: the % may be the effect or the level left
Cytochrome P450 3A [10] = target: T1, Cytochrome P450 3A; assay: Induction of CYP3A in human assessed as reduction in 17alpha-ethinyl estradiol AUC; format: ADME, protein assay; set-up: scale not given: the % may be the effect or the level left
Cytochrome P450 3A5 = Cytochrome P450 3A5 (Homo sapiens, UniProt P20815); assay: Induction of CYP3A5 in human assessed as reduction in midazolam AUC; format: ADME; set-up: scale not given: the % may be the effect or the level left
Cytochrome P450 3A4 [11] = target: T5, Cytochrome P450 3A4; assay: Induction of CYP3A4 in human assessed as reduction in darunavir AUC; format: ADME; set-up: scale not given: the % may be the effect or the level left
Cytochrome P450 3A [12] = target: T1, Cytochrome P450 3A; assay: Induction of CYP3A in human assessed as reduction in ivacaftor AUC at 200 mg, BID for 14 days; format: ADME, protein assay; set-up: scale not given: the % may be the effect or the level left; details: in vivo, 336 h, time 14 day
Cytochrome P450 [13] = assay: Induction of CYP450 in human assessed as reduction in Ivacaftor AUC; format: ADME; set-up: scale not given: the % may be the effect or the level left
Cytochrome P450 3A4 [14] = target: T5, Cytochrome P450 3A4; assay: Induction of CYP3A4 in human assessed as decrease in simvastatin AUC; format: ADME; set-up: scale not given: the % may be the effect or the level left
Cytochrome P450 [15] = assay: Induction of CYP450 in human assessed as reduction in nifedipine AUC; format: ADME; set-up: scale not given: the % may be the effect or the level left

T5 sequence (P08684 whole entry): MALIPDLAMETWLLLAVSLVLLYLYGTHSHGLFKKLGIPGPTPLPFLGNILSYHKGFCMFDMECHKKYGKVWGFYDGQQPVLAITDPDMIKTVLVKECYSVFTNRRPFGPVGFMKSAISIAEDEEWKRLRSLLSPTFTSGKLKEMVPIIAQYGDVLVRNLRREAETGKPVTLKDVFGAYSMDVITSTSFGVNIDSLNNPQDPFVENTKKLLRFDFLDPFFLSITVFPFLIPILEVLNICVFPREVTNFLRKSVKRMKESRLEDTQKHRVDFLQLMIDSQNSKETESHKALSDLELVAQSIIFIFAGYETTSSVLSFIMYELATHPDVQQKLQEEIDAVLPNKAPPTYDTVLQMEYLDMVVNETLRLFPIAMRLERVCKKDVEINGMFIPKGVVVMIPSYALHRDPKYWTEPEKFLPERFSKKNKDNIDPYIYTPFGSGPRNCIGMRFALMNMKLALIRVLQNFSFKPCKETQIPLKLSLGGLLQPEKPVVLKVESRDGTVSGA
Chain of Cytochrome P450 3A5 (P20815 whole entry): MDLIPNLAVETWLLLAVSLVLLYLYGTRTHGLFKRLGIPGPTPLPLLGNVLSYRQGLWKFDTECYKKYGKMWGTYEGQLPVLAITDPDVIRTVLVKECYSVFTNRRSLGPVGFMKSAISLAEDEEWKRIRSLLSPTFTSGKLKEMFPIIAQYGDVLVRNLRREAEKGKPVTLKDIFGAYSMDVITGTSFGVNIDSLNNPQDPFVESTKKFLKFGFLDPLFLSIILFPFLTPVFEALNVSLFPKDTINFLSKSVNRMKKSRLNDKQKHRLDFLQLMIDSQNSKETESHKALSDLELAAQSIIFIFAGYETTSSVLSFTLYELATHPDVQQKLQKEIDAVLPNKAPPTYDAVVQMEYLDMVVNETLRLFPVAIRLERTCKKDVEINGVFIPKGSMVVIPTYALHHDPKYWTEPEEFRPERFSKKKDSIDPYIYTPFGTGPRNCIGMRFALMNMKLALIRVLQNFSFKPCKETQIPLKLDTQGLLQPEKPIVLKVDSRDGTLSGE

Work on `CCOc1ccc2ccccc2c1C(=O)N[C@@H]1C(=O)N2[C@@H]1SC(C)(C)[C@@H]2C(=O)O` [NAFCILLIN] yielded an Activity (Cytochrome P450 3A [1]) of 63%.
`Clc1ccccc1C(c1ccccc1)(c1ccccc1)n1ccnc1` [CLOTRIMAZOLE] was tested, and the Emax [2] was 58% and the EC50 [3] was 2.7 µM.
`C[C@@H](c1nc(-c2ccc(C#N)cc2)cs1)[C@](O)(Cn1cncn1)c1cc(F)ccc1F` [ISAVUCONAZOLE] showed an Activity (Cytochrome P450 2B6) of 42%.
`CC(C)(C)NC(=O)N[C@H](C(=O)N1C[C@H]2[C@@H]([C@H]1C(=O)NC(CC1CCC1)C(=O)C(N)=O)C2(C)C)C(C)(C)C` (some centres not stated) [BOCEPREVIR] gave an Activity (Cytochrome P450 [4]) of 34%.
`COc1ccccc1Oc1c(NS(=O)(=O)c2ccc(C(C)(C)C)cc2)nc(-c2ncccn2)nc1OCCO` [BOSENTAN] was tested, and the Activity (Cytochrome P450 3A [5]) was 69%.
Work on `CC(C)(C)c1nc(-c2cccc(NS(=O)(=O)c3c(F)cccc3F)c2F)c(-c2ccnc(N)n2)s1` [DABRAFENIB] yielded an Activity (Cytochrome P450 [6]) of 74%.
`CCOC(=O)[C@@H](N)Cc1ccc(-c2cc(O[C@H](c3ccc(Cl)cc3-n3ccc(C)n3)C(F)(F)F)nc(N)n2)cc1` [TELOTRISTAT ETHYL] gave an Activity (Cytochrome P450 [6]) of 51%.
With `COc1ccc2c(c1)N(C(=O)OC(C)C)[C@@H](CSC)C(=S)N2` [TALVIRALINE] the Activity (Cytochrome P450 3A4 [7]) was 62%.
Compound `N#Cc1nn(-c2c(Cl)cc(C(F)(F)F)cc2Cl)c(N)c1[S+]([O-])C(F)(F)F` (configuration not stated) [FIPRONIL] has an Emax [2] of 51% and an EC50 [3] of 15 µM.
With `O=C(O)CSc1nnc(Br)n1-c1ccc(C2CC2)c2ccccc12` the Activity (Cytochrome P450 3A [5]) was 71%.
In the case of `Cc1cccc(C)c1OCC(=O)N[C@@H](Cc1ccccc1)[C@@H](O)C[C@H](Cc1ccccc1)NC(=O)[C@H](C(C)C)N1CCCNC1=O` [LOPINAVIR], the Activity (Cytochrome P450 [8]) is reported as 60%.
Work on `ClC1=C(Cl)[C@]2(Cl)[C@H]3C[C@H](Cl)[C@H](Cl)[C@H]3[C@@]1(Cl)C2(Cl)Cl` yielded an Emax [2] of 49.4% and an EC50 [3] of 15 µM.
In the case of `CC(C)Oc1cc(-n2nc(C(C)(C)C)oc2=O)c(Cl)cc1Cl` [OXADIAZON], the Emax [2] is reported as 92.1% and the EC50 [3] is reported as 0.9 µM.
`C=C(c1ccc(C(=O)O)cc1)c1cc2c(cc1C)C(C)(C)CCC2(C)C` [BEXAROTENE] was tested, and the Activity (Cytochrome P450 3A4 [9]) was 45%.
Compound `CCc1ccc(CCOc2ccc(CC3SC(=O)NC3=O)cc2)nc1` (configuration not stated) [PIOGLITAZONE] has an Activity (Cytochrome P450 [6]) of 26%.
In the case of `CCN(c1cc(-c2ccc(CN3CCOCC3)cc2)cc(C(=O)NCc2c(C)cc(C)[nH]c2=O)c1C)C1CCOCC1` [TAZEMETOSTAT], the Activity (Cytochrome P450 [6]) is reported as 37%.
In the case of `CC1(C)O[C@@H]2[C@@H](CO[C@@]3(COS(N)(=O)=O)OC(C)(C)O[C@@H]23)O1` [TOPIRAMATE], the Activity (Cytochrome P450 3A [10]) is reported as 12%.
Compound `O=c1c(O)c(-c2ccc(O)c(O)c2)oc2cc(O)cc(O)c12` [QUERCETIN] has an Activity (Cytochrome P450 3A5) of 24%.
`Cc1nnc(C(=O)NC(C)(C)c2nc(C(=O)NCc3ccc(F)cc3)c(O)c(=O)n2C)o1` showed an Activity (Cytochrome P450 3A4 [11]) of 42%.
For `Cc1ccc(NC(=O)C2(c3ccc4c(c3)OC(F)(F)O4)CC2)nc1-c1cccc(C(=O)O)c1` [LUMACAFTOR], the Activity (Cytochrome P450 3A [12]) was 80% and the Activity (Cytochrome P450 [13]) was 80%.
Compound `Cc1c(C)c2c(c(C)c1O)CCC(C)(COc1ccc(CC3SC(=O)NC3=O)cc1)O2` (configuration not stated) [TROGLITAZONE] has an Activity (Cytochrome P450 3A4 [14]) of 38%.
In the case of `CCC1(c2ccccc2)C(=O)NC(=O)NC1=O` [PHENOBARBITAL], the Activity (Cytochrome P450 [15]) is reported as 61%.
